Series [1] can be described thus: Tasting of the pungent compounds in 11% strength by weight sugar solution (Example 1). It counts as in vivo, human. The following applies: approx. 5 ml swallowed, 8 testers. On the procedure:
The substance, under test, was dissolved in ethanol and the ethanolic solution was then diluted with an 11% strength by weight sugar solution (final concentration: c). For tasting, in each case approximately 5 ml of the sugar solution was swallowed. If the threshold value of the substance was known, a value just above the threshold value is chosen for the tasting. A group of 8 testers tasted the solutions.

The conditions of series [2]: in vivo; cited from earlier work.
For series [3] the following is noted: with frequent use and overdose; cited from earlier work.
Another series relates to mouse. The note with it: cited from earlier work.
A short description of series [4]: Test of the combined action of grains of paradise extract and trans-feruloylmethoxytyramine in model system A. It counts as in vivo, human. The note with it: 0.02% by weight solution (10% by weight EtOH) in model system A. As to the method:
(§1) The grains of paradise extract used below was prepared by stirring 800 g of ground grains of paradise with 4 kg of ethanol (96% by volume). After filtration the filtrate was concentrated to 40 g and treated with steam at 100° C. and 300 mbar. The extract was made up to 80 g with ethanol (96% by volume).
(§2) As commercially conventional model systems, a liqueur base of 10% by volume and a liqueur base of 5.5% by volume were selected.
Then, to model system A the solution of a grains of paradise extract (10% by weight in ethanol) was added at concentrations of 0.1 to 0.2% by weight, based on the total weight of the model system, and a solution of trans-feruloylmethoxytyramine (10% by weight in ethanol) at a concentration of 0.01 to 0.02% by weight, based on the total weight of the model system. Using a taste-testing group of 8 people, again the effect of grains of paradise extract addition and of trans-feruloylmethoxytyramine addition on the sensory profile were tested. In addition, the combined action was tested.

Series [5] in a line: Gelled fruits having elderberry flavor, flavor intensifier test. The note with it: elderberry flavor 0.07% by weight. It is filed as in vivo, human. The text has this: As commercially conventional model system, flavor combinations in gelled fruits having elderberry flavor were used: […]
Series [6] can be described thus: Sensory assessment of the pungency of liqueur base model system A (10% by volume) with additions. The following applies: 1% by weight of solution (1% by weight in EtOH) added to model system A. It counts as in vivo, human. On the procedure:
as §1, §2
To the model system A were then added the solution of the extract of grains of paradise (1% by weight in ethanol (EtOH)) at concentrations of 1 to 3% by weight, based on the total weight of the model system, and a solution of trans-feruloylmethoxytyramine (1% by weight in ethanol) at a concentration of 1% by weight, based on the total weight of the model system. Using a taste-testing group of 8 people, the effect of grains of paradise extract addition and trans-feruloylmethoxytyramine addition on the sensory profile were then tested. The sensory assessment was made on a scale of 1 (weak) to 5 (strong).

Each structure is given as a SMILES string.

On to `COc1cc(/C=C\C(=O)NCCc2ccc(O)c(OC)c2)ccc1O` [cis-feruloylmethoxytyramine, N-[2-(4-hydroxy-3-methoxyphenyl)ethyl]-3-(4-hydroxy-3-methoxyphenyl)-(2Z)-propenamide], for which, in series [1] (c=1 ppm in 11% sugar solution), the Sensory profile result is on record as “pungency builds up slowly”.

Turning to `COc1cc(/C=C/C(=O)NCc2ccc(O)c(OC)c2)ccc1O` [ferulic acid N-vanillylamide, N-(4-hydroxy-3-methoxybenzyl)-4-hydroxy-3-methoxy-(2E)-propenamide], the “Pungency as described in the literature” value in series [2] is listed as “not described as pungent”.

On to `O=C(/C=C/c1ccc(O)c(O)c1)NCCc1ccc(O)cc1` [trans-caffeoyltyramine, N-[2-(4-hydroxyphenyl)ethyl]-3-(3,4-dihydroxyphenyl)-(2E)-propenamide], for which the Sensory profile result in series [1] (c=1 ppm in 11% sugar solution) is given as “pungency occurs after a delay, anaesthetizing pungency”.

On to `COc1cc(CNC(=O)CCCC/C=C/C(C)C)ccc1O` [capsaicin, N-(4-hydroxy-3-methoxybenzyl)-8-methyl-(6E)-nonenamide], for which the Chronic damage entry in series [3] was “chronic gastritis, kidney damage and liver damage”. Further, the “LD50 (mouse oral)” value in the series on mouse is given as 47 mg.

In the case of `COc1cc(/C=C/C(=O)NCCc2ccc(O)c(OC)c2)ccc1O` [trans-feruloylmethoxytyramine, N-[2-(4-hydroxy-3-methoxyphenyl)ethyl]-3-(4-hydroxy-3-methoxyphenyl)-(2E)-propenamide], the “Comments (sensory)” value in series [4] is on record as “Mild, pungency very similar”. Besides, the Sensory description result in series [5] (0.015% by weight of solution (1% by weight in ethanol)) is “Effect only slightly perceptible”; in series [5] (0.03% by weight of solution (1% by weight in ethanol)), “Effect below threshold, but pleasant”; in series [5] (0.045% by weight of solution (1% by weight in ethanol)) it was “Flavor fresh and rounded”; in series [6] it was “Sweet, vanilla, fruity, less”. Also, the Sensory profile result is given as “body, sweet, heat develops after delay, long-lasting, especially in the pharyngeal cavity (in the case of 4 participants), adherent, slightly anaesthetizing action” in series [1] (c=10 ppm in 11% sugar solution) and “sweet, aniseed-like, benzaldehyde, heat develops after a delay (in the case of 8 participants), long-lasting, especially in the pharyngeal cavity, pleasant pepper pungency” in series [1] (c=20 ppm in 11% sugar solution). For the same compound, in series [6] (scale 1 (weak) to 5 (strong), 8 people), the “Pungency (median), Scale 1-5” value was 2.

For `COc1ccc(/C=C/C(=O)NCCc2ccc(OC)c(OC)c2)cc1OC` [trans-rubenamine, N-[2-(3,4-dimethoxyphenyl)ethyl]-3-(3,4-dimethoxyphenyl)-(2E)-propenamide], the Sensory profile result in series [1] (c=1 ppm in 11% sugar solution) is recorded as “pleasant mild pungency, builds up slowly”.

Values taken from patent US7378121B2, “Use of ferulic acid amides as flavor compounds” (Symrise GmbH & Co. KG, priority 2001, dated 2008).
